Results on 17 compounds are retold here after BindingDB's records for doi:10.1002/1439-7633(20010504)2 (University of NeuchÂTel, 2001).

The assay has as its target T1, Delta-aminolevulinic acid dehydratase (Escherichia coli (strain K12), UniProt P0ACB2).
T1 sequence (P0ACB2 whole entry): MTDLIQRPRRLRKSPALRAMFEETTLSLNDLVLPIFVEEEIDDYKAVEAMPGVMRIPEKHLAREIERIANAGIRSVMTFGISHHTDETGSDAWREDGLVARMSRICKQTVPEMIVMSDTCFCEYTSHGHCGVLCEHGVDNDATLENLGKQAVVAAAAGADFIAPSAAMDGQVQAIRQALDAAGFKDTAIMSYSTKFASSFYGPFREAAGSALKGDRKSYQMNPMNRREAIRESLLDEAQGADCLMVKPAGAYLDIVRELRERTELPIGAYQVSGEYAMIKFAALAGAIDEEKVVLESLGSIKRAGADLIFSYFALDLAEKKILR
Briefly: PBGS Assay. To be noted: pH 8.1; 37 °C. The text has this: The PBGS assay is a colorimetric assay based on the reaction between PBG and 4-dimethylaminobenzaldehyde (Ehrlich's reagent).

Usually Ki stands for the dissociation constant of the complex between target and ligand, obtained from inhibition or displacement. A high value points to weaker binding. With `CC(=O)CCC(=O)O` [Substrate analogue, 8], the inhibitory constant (Ki) stood at 2.2 mM.

On to `O=C(O)CCC(=O)CF` [Substrate analogue, 9], for which the Ki amounted to 0.085 mM.

Compound `COC(=O)CCC(=O)O` [Substrate analogue, 10] registered a Ki of 38.4 mM.

In the case of `CNC(=O)CCC(=O)O` [Substrate analogue, 12], the inhibition constant Ki worked out at 36.4 mM.

Compound `CC(=O)OCC(=O)O` [Substrate analogue, 13] yielded an inhibitory constant (Ki) of 24.5 mM.

For `NCC(=O)OCC(=O)O` [Substrate analogue, 14], the Ki came out at 18.2 mM. This Ki and that of the compound before are within 1.5-fold of each other.

Compound `CC(=O)NCC(=O)O` [Substrate analogue, 15] gave a Ki of 18.8 mM.

As for `CC(=O)CC[N+](=O)[O-]` [Substrate analogue, 17], the Ki turned out to be 0.028 mM. Compared with the last compound, the Ki is about 670-fold lower.

Consider `O=C(CF)CC[N+](=O)[O-]` [Substrate analogue, 18], for which the affinity corresponds to a Ki of 0.021 mM.

As for `COC(=O)CC[N+](=O)[O-]` [Substrate analogue, 19], affinity was put at a Ki of 1.88 mM.

`O=C(O)CC[N+](=O)[O-]` [Substrate analogue, 20] displayed a Ki of 44.9 mM.

`COC(=O)CCC(=O)NCC(=O)CCC(=O)O` [Substrate analogue, 24] returned an inhibition constant (Ki) of 0.243 mM.

In turn, `COC(=O)CCC(=O)NCC(=O)CC[N+](=O)[O-]` [Substrate analogue, 28] yielded a Ki of 0.02 mM. This Ki is about 12-fold lower than that of the compound before.

For the compound `O=C(O)CCC(=O)CCCCC[N+](=O)[O-]` [Substrate analogue, 31], the affinity, expressed as Ki, was 4.9 mM.

Compound `O=C(O)CCCCNC(=O)CCC(=O)O` [Substrate analogue, 32] yielded an inhibition constant Ki of 22.9 mM.

For `O=C(O)CCCCNC(=O)CC[N+](=O)[O-]` [Substrate analogue, 33], the inhibition constant Ki came to 18.2 mM. This Ki and that of the compound before are within 1.5-fold of each other.

For `O=C(O)CCC(=O)O` [Succinic acid, 6], the inhibition constant Ki amounted to 12.5 mM.
